IC50 and melting point data for four compounds are collected here from US8124629B2, “Naphthylacetic acids” (Hoffmann-La Roche Inc., priority 2008, dated 2012).

The test system of data set [1] is DK-PGD2-induced IL-13 production in Th2 cells. Briefly: DK-PGD2-Induced IL-13 Production Assay in Th2 Cells. Format: cell-based. As to conditions: human Th2 cells; 500 nM DK-PGD2; 4 hrs at 37° C.; IL-13 by ELISA; read-out: IC50 for inhibition of IL-13 production. The procedure:
Inhibition of 13,14-dihydro-15-keto Prostaglandin D2 (DK-PGD2)-induced IL-13 production in T helper type 2 (Th2) cells was applied to evaluate compound cellular potency.
Cultures of Th2 cells were established from blood of healthy human volunteers according to the following procedure. Peripheral blood mononuclear cells (PBMC) were first isolated from 50 mL of fresh blood by Ficoll-Hypaque density gradient centrifugation, followed by CD4^+cell purification using a CD4^+T Cell Isolation Kit II (from Miltenyi Biotec Inc.). The CD4^+T cells were then differentiated to Th2 cells by culturing the cells in X-VIVO 15® medium (from Cambrex BioScience Walkersville Inc.) containing 10% human AB serum (serum of blood type AB from Invitrogen Corporation), 50 U/mL of recombinant human interleukin-2 (rhIL-2) (from PeproTech Inc.) and 100 ng/mL of recombinant human interleukin-4 (rhIL-4) (from PeproTech Inc.) for 7 days. The Th2 cells were isolated using a CD294 (CRTH2) MicroBead Kit (from Miltenyi Biotec Inc.) and amplified in X-VIVO 15® medium containing 10% human AB serum and 50 U/mL of rhIL-2 for 2 to 5 weeks. In general, 70% to 80% of the Th2 cells used in the assay are CRTH2-positive when analyzed by fluorescence-activated cell sorting using the BM16 antibody (as previously described) conjugated to phycoerythrin (PE).
The spontaneous production of IL-13 by Th2 cells was determined in the absence of DK-PGD2 stimulation and the value was subtracted from that in the presence of each compound for percent inhibition and IC50 calculations.
The percent inhibition of interleukin 13 (IL-13) production for a compound at various concentrations was calculated according to the following formula, [1-(IL-13 production in the presence of compound)/(IL-13 production in the presence of 0.15% DMSO)]×100. […]
Background: In an ELISA, binding on a coated surface is turned into a signal by an enzyme label.

For the next data set, the target named is T1, human CRTH2 (Homo sapiens, UniProt Q9Y5Y4).
T1 sequence (Q9Y5Y4 1-395): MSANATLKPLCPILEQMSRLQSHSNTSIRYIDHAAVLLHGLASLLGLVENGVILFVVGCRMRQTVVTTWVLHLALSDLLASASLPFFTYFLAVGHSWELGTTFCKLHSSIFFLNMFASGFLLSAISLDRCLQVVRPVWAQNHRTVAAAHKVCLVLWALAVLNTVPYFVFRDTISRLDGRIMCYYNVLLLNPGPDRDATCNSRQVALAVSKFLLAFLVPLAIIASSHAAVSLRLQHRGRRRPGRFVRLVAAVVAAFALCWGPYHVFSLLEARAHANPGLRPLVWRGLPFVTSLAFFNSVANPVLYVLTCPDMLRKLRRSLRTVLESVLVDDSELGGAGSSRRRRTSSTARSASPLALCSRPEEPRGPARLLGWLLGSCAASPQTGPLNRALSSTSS
Briefly: Human CRTH2 Receptor Binding Assay (whole cell, [3H]ramatroban). Details: expressed in transfected cells; host or cells: CHO-K1. As to conditions: CHO-K1 cells expressing human CRTH2 and G-alpha16; 20 nM [3H]ramatroban; 1 hour, room temperature. An outline of the steps: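 CHO-K1 cells stably co-expressing human CRTH2 and G-alpha16, 1.5×10^5 cells/reaction, bound 1 h at room temperature with 20 nM [3H]ramatroban in PBS, 10 mM MgCl2, 0.06% BSA. Filter-bound radioactivity counted; non-specific binding defined with 10 μM 15(R)-15-methyl PGD2. IC50 from 4-parameter fit of 7-concentration inhibition data.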

In the case of `Cc1ccc2cc(CC(=O)O)cc(C(O)c3ccc(S(C)(=O)=O)cc3)c2c1` (centres unmarked) [Example 16-2, {4-[Hydroxy-(4-methanesulfonyl-phenyl)-methyl]-6-methyl-naphthalen-2-yl}-acetic acid], the figures for the IC50 (in data set [1]; on human CRTH2) were 5750 nM and 386 nM, respectively.
For `CS(=O)(=O)c1ccc(C(=O)c2cc(CC(=O)O)cc3ccc(C(F)(F)F)cc23)cc1` [Example 2-29, [4-(4-Methanesulfonyl-benzoyl)-6-trifluoromethyl-naphthalen-2-yl]-acetic acid], in that order: 3000 nM and 7.5 nM.
`CS(=O)(=O)c1ccc(Cc2cc(CC(=O)O)cc3cc(C(F)(F)F)ccc23)cc1` [Example 8-3, [4-(4-Methanesulfonyl-benzyl)-7-trifluoromethyl-naphthalen-2-yl]-acetic acid]: the IC50 (commonly the concentration that inhibits the measured activity by half) was > 10000 nM in data set [1] and 162 nM on human CRTH2.
As for `Cc1c(CC(=O)O)cc2ccc(F)cc2c1Cc1ccc(S(=O)(=O)C(F)(F)F)cc1` [Example 11-1, [6-Fluoro-3-methyl-4-(4-trifluoromethanesulfonyl-benzyl)-naphthalen-2-yl]-acetic acid], the melting point – broadly, the temperature, or range, at which the solid turns liquid – is 200 to 201 °C. The IC50 on human CRTH2 worked out at 3 nM.
